{
  "source": "patent US12370230B2",
  "about": "“Hemp and PEA formulation and its use” (priority 2019, dated 2025)",
  "key": {"[1]": {"test_system": "formalin-evoked acute and persistent nociceptive behaviors", "assay": "Formalin test (acute nocifensive response; PFD7 hypersensitivity and paw edema)", "format": "in vivo, mice", "protocol": "(§1) We used male CD-1 mice (9-10 weeks old; Charles River, Wilmington, MA, US) weighing 25-30 g upon arrival. They were randomly assigned to treatment groups and housed in ventilated plastic cages (4-5 per cage) in the animal facility of the University of California, Irvine. Animals were maintained in a pathogen-free environment (12-h light/dark cycle) under controlled temperature (20±2° C.) and humidity (55-60%) with food and water available ad libitum. Mice were allowed to acclimate for at least 7 days and experiments were conducted during the light phase of the light/dark cycle. All efforts were made to minimize the number of animals used and their discomfort. All procedures were approved by the Institutional Animal Care and Use Committee at the University of California, Irvine, and were carried out in strict accordance with the National Institutes of Health guidelines for the care and use of animals.\n(§2) HOE (code: VOHO-MGC) and PEA (batch No 20190604_03) were supplied by Metagenics Inc. The chemical composition of HOE is presented in Table A below. The extract was aliquoted upon arrival at our facility and kept at −80° C. until use. Before tests, aliquots were thawed at room temperature and the extract was diluted to the desired dose in a vehicle of 85% distilled water/15% Tween 80. Defrosted samples were discarded after use. HOE was subjected to an internal quality control to monitor its content of CBD and CBDA over time. HOE, PEA and their combinations were administered in volumes of 10 mL/kg by oral gavage.\nThe formalin test was described in detail previously (e.g., see Dubuisson & Dennis, 1977). We injected formalin (1% v/v, 10 μL) or vehicle (saline, 10 μL) into the plantar surface of the right hind paw of male mice. Test compounds or vehicle (85% distilled water/15% Tween 80) were administered orally 1 h before formalin injection. Following injection, mice were immediately transferred to a transparent observation chamber where nocifensive behavior (time spent licking or biting the injected paw, number of shakings) was continuously recorded by a video camera for 60 min and then measured by trained observers blinded to experimental conditions. Behavioral tests and paw edema measurements were performed on post-formalin day (PFD) 7 in both the injected (ipsilateral) and contralateral paws.\n(§3) Mechanical sensitivity was assessed using a dynamic plantar aesthesiometer (Cat. No 37450, Ugo Basile, Italy). Mice were placed individually in transparent cages positioned on a wire mesh surface. After a 45-min habituation period, a mechanical stimulus was delivered to the plantar surface of the hind paws through the metal grid by an automated steel filament exerting an increasing force ranging from 0 to 5 grams over 10 s. The force at which the mouse withdrawn its paw (withdrawal threshold, in grams) was measured automatically. Thermal sensitivity was measured using a Hargreaves plantar test apparatus (San Diego Instruments, Inc, CA, USA). Mice were individually placed in small enclosures with a glass floor. After a 45-min habituation period, the plantar surface of the hind paws was exposed to a beam of radiant heat (infrared heat intensity: 3.0) through the glass floor. The cut-off time was set at 15 s. The time taken to withdraw the paw from heat stimulus (withdrawal latency, in seconds) was measured automatically. Each paw was tested 3 times with a 2-min interval between stimuli and the mean paw withdrawal threshold and latency were calculated. Paw thickness was measured in both ipsilateral and contralateral paws using a digital caliper (Cat. No 06-664-16, Fisher scientific, USA). Paw edema was quantified as the difference (paw thickness, in mm) between the ipsilateral paw thickness and the contralateral counterpart.\nResults are presented as mean S.E.M. of n experiments. ED50 values were determined by linear regression analysis of dose-response curves. […]"}, "[2]": {"test_system": "CCI-evoked mechanical allodynia and heat hyperalgesia", "assay": "Chronic constriction injury (CCI) of the sciatic nerve: mechanical allodynia and heat hyperalgesia", "format": "in vivo, mice", "protocol": "as §1, §2\n(§4) We elicited peripheral neuropathy in the left sciatic nerve of mice as described elsewhere (e.g., see Bennett & Xie, 1988). In brief, mice were anesthetized in 2-3% isoflurane in O2. Under aseptic conditions, the sciatic nerve was exposed at mid-thigh level through a small incision and loosely tied at 3 distinct sites (spaced at 1-mm interval) with 4-0 chromic catgut (Ethicon, USA). The wound was closed with a single muscle suture (Mersilk 5.0, Ethicon, USA) and glue to fasten the skin. Operated mice were returned to their home cages for recovery. Test compounds or vehicle were given by the oral route on day 7 after surgery (acute treatment) and then repeatedly once daily for 7 consecutive days (subchronic treatment). Behavioral tests were performed within 1 h of acute treatment or last subchronic treatment in both operated (ipsilateral) and contralateral paws. Mice were sacrificed by decapitation, the spinal cords were extruded by hydraulic pressure and processed for specific mRNA quantification in lumbar segments by real-time quantitative PCR.\nas §3, with “Paw edema was quantified as the difference (paw thickness, in mm) between the ipsilateral paw thickness and the contralateral counterpart.” left out"}, "[3]": {"test_system": "IL-10 mRNA", "assay": "Real-time quantitative PCR in lumbar spinal cords of CCI mice, IL-10", "format": "in vivo", "conditions": "PEA 20 mg/kg alone, oral, lumbar spinal cord, vs vehicle", "source_text": "as §4, with “Test compounds or vehicle were given by the oral route on day 7 after surgery (acute treatment) and then repeatedly once daily for 7 consecutive days (subchronic treatment). Behavioral tests were performed within 1 h of acute treatment or last subchronic treatment in both operated (ipsilateral) and contralateral paws.” left out\nWe extracted total RNA from lumbar spinal cords (L3-L6) using TRIzol™ reagent (Thermo Fisher Scientific, Walthman, USA) and purified with the PureLink™ RNA Mini Kit (Invitrogen, Carlsbad, USA) as directed by the supplier. […] RNA concentration and purity were determined using the NanoDrop 2000/2000-c spectrophotometer (Thermo Fisher Scientific, Walthman, USA). cDNA was synthesized using 2 μg of total RNA as input for the High-Capacity cDNA RT Kit with RNase Inhibitor (Applied BioSystems, Foster City, USA) with a final reaction volume of 20 μL. […]"}, "[4]": {"conditions": "PEA 300 mg/kg oral single dose, PFD7, vs vehicle"}, "[5]": {"conditions": "PEA at dosages lower than 300 mg/kg oral, PFD7, P>0.05 vs vehicle"}, "[6]": {"conditions": "PEA 100 or 300 mg/kg oral once daily for 7 consecutive days, day 14 after CCI"}, "[7]": {"conditions": "single oral PEA administration, dose-response, day 7 after CCI, vs vehicle"}},
  "data": [
    {"smiles": "CCCCCCCCCCCCCCCC(=O)NCCO", "note": "[PEA, palmitoylethanolamide]", "values": [
      {"measurement": "alleviation of heat hyperalgesia, contralateral paw", "setting": "[1]; [4]", "value": 110, "unit": "%"},
      {"measurement": "alleviation of heat hyperalgesia, ipsilateral paw", "setting": "[1]; [4]", "value": 93, "unit": "%"},
      {"measurement": "attenuation of mechanical allodynia, contralateral paw", "setting": "[1]; [4]", "value": 112, "unit": "%"},
      {"measurement": "attenuation of mechanical allodynia, ipsilateral paw", "setting": "[1]; [4]", "value": 91, "unit": "%"},
      {"measurement": "formalin-evoked nocifensive response", "setting": "[1]; PEA 10, 30, 100 and 300 mg/kg oral", "value": "dose-dependent suppression"},
      {"measurement": "formalin-evoked inflammatory response (paw thickness)", "setting": "[1]; PEA 10, 30, 100 and 300 mg/kg oral, PFD7", "value": "dose-dependent suppression"},
      {"measurement": "effect on heat hyperalgesia", "setting": "[1]; [5]", "value": "no effect"},
      {"measurement": "effect on mechanical allodynia", "setting": "[1]; [5]", "value": "no effect"},
      {"measurement": "effect on heat hyperalgesia, subchronic", "setting": "[2]; [6]", "value": "reversed"},
      {"measurement": "effect on mechanical allodynia, subchronic", "setting": "[2]; [6]", "value": "reversed"},
      {"measurement": "ED50, suppression of mechanical allodynia", "setting": "[2]; single oral PEA administration, day 7 after CCI, 95% CI 18.7 to 26.0", "value": 22.2, "unit": "mg/kg"},
      {"measurement": "ED50, suppression of heat hyperalgesia", "setting": "[2]; single oral PEA administration, day 7 after CCI, 95% CI 21.8 to 29.1", "value": 25.1, "unit": "mg/kg"},
      {"measurement": "suppression of heat hyperalgesia (maximal)", "setting": "[2]; [7]", "value": "≤ 109", "unit": "%"},
      {"measurement": "suppression of mechanical allodynia (maximal)", "setting": "[2]; [7]", "value": "up to 85%"},
      {"measurement": "IL-10 mRNA levels", "setting": "[3]", "value": "halved"}
    ]}
  ]
}
